Laboratory results reported in US20050192337A1, “Processes and polymorphs of diaryl-indolone galr3 antagonists” (priority 2002, published 2005).

Assays:
Type in all cases: physicochemical
[1] = Moisture sorption/desorption (moisture balance) of Compound I forms
[2] = Stress studies of Compound I (heat stress, XRPD of resulting solid); conditions: for Stability to heat stress: Table 7
Protocol: (§1) X-ray powder diffraction (XRPD) analyses were performed using a Shimadzu XRD-6000 X-ray powder diffractometer using Cu Kα radiation. The instrument was equipped with a fine focus X-ray tube. The tube voltage and amperage were set to 40 kV and 40 mA, respectively. The divergence and scattering slits were set at 1° and the receiving slit was set at 0.15 mm. Diffracted radiation was detected by a NaI scintillation detector. A theta-two theta continuous scan at 3°/min (0.4 sec/0.02° step) from 2.5 to 40° 2θ was used. A silicon standard was analyzed to check the instrument alignment. Data were collected and analyzed using XRD-6000 v. 4.1. Samples were prepared for analysis by placing them in a silicon sample holder or aluminum holder with silicon insert. X-ray powder diffraction (XRPD) analyses were also performed using an Inel XRG-3000 diffractometer equipped with a CPS (Curved Position Sensitive) detector with a 2θ range of 120°. Real time data were collected using Cu-Kα radiation starting at approximately 4° 2θ at a resolution of 0.03° 2θ. The tube voltage and amperage were set to 40 kV and 30 mA, respectively. The monochromator slit was set at 5 mm by 80 μm. […] Samples were prepared for analysis by packing them into thin-walled glass capillaries. Each capillary was mounted onto a goniometer head that is motorized to permit spinning of the capillary during data acquisition. The samples were analyzed for 5 min. Instrument calibration was performed using a silicon reference standard.
(§2) All three polymorphs are also non-hygroscopic, as indicated by the data in Table 8.

[3] = Slurry experiments on Compound I crystalline forms (XRPD); conditions: for Conversion upon stirring as a slurry in an organic solvent: a few hours to several days, Tables 9 and 10
Protocol: as §1, §2
Form I can be obtained in a straightforward fashion by stirring a slurry of any solid form of Compound I, and particularly Form II or III, in an organic solvent in which Compound I is partially soluble, for several hours until the material converts completely to Form I. Formation of Form I can be analyzed through DSC or, preferably, XRPD analysis. In one embodiment of the invention, a slurry of solid Compound I in an organic solvent is generated by cooling a hot, saturated solution of Compound I in an organic solvent, allowing crystals to form, then stirring the resulting slurry for several hours or a few days until the solid material converts substantially or completely to Form I. In a preferred embodiment, the hot, saturated solution of Compound I is generated in situ in the one-pot synthetic process described above. Form I can also be prepared by slurrying for several hours Compound I, Form II in a saturated methanol solution or in an appropriate solvent.

[4] = Interconversion experiments of Compound I (slurry of mixed forms, XRPD); conditions: 25° C.
Protocol: as §1, with “Each capillary was mounted onto a goniometer head that is motorized to permit spinning of the capillary during data acquisition.” left out, “Instrument calibration was performed using a silicon reference standard.” left out

[5] = Differential scanning calorimetry, relative stability of forms on heating; conditions: high temperatures, DSC 1° C./min
Protocol: Differential scanning calorimetry (DSC) was performed using a TA Instruments differential scanning calorimeter 2920. The sample was placed into an aluminum DSC pan, and the weight accurately recorded. The pan was covered with a lid and left uncrimped. Each sample was equilibrated at 25° C. and heated under a nitrogen purge at a rate of 10 or 20° C./min, up to a final temperature of 270° C. or 350° C. Samples were also heated at 1 or 5° C./min up to 150° C.

Row | SMILES | Hygroscopicity [1] | Moisture Balance Results: weight loss at 5% RH ([1]; 5% RH) | Result (XRPD form after stress) ([2]; 80 C., 4 days) | Stability to heat stress [2] | Conversion upon stirring as a slurry in an organic solvent [3] | Moisture Balance Results: total weight gain at 95% RH [1] | XRPD Results after slurry ([3]; MeOH, ambient, 11 d) | also measured
1 | O=C1C(=Nc2cccc(C(F)(F)F)c2)c2ccccc2N1c1ccccc1 (racemic) [Form III, 1-phenyl-3-[[3-(trifluoromethyl)phenyl]imino]-1H-indol-2-one] | nonhygroscopic | <0.1% weight loss at 5% RH, | III (SS) | relatively stable to heat stress | convert to Form I | – | – | Moisture Balance Results: total weight gain at 95% RH ([1]; listed as III): <0.1% total weight gain at; Result (XRPD form after stress) ([2]; 60 C., 4 days): III (SS); Result (XRPD form after stress) ([2]; 70 C., 4 days): III (SS)
2 | O=C1C(=Nc2cccc(C(F)(F)F)c2)c2ccccc2N1c1ccccc1 (racemic) [amorphous, 1-phenyl-3-[[3-(trifluoromethyl)phenyl]imino]-1H-indol-2-one] | – | – | – | – | – | 0.3% total weight gain at | – | Moisture Balance Results: weight gain at 5% RH ([1]; 5% RH): <0.1% weight gain at 5% RH,; XRPD Results on solid after moisture balance run ([1]; after moisture balance run): amorphous; Result (XRPD form after stress) ([2]; 60 C./17 hours): III (LC)
3 | O=C1/C(=N\c2cccc(C(F)(F)F)c2)c2ccccc2N1c1ccccc1 [Compound I, 1-phenyl-3-[[3-(trifluoromethyl)phenyl]imino]-1H-indol-2-one] | – | <0.1% weight loss at 5% RH, | – | – | – | <0.1% total weight gain at | I (PO) | –
4 | O=C1/C(=N\c2cccc(C(F)(F)F)c2)c2ccccc2N1c1ccccc1 [Form I, 1-phenyl-3-[[3-(trifluoromethyl)phenyl]imino]-1H-indol-2-one] | nonhygroscopic | – | – | relatively stable to heat stress | remains unchanged | – | – | Relative stability of forms [4]: more stable than either Form II or III
5 | O=C1/C(=N\c2cccc(C(F)(F)F)c2)c2ccccc2N1c1ccccc1 [Form II, 1-phenyl-3-[[3-(trifluoromethyl)phenyl]imino]-1H-indol-2-one] | – | <0.1% weight loss at 5% RH, | II (PO) + peak@5° 2θ | relatively stable to heat stress | convert to Form I | <0.1% total weight gain at | I (PO) | Relative stability of forms [5]: more stable than Form I; XRPD Results after slurry ([3]; Experiment 3, MeOH, 25° C., 1 hour): II + I (minor); XRPD Results after slurry ([3]; Experiment 4, MeOH, 25° C., 1 hour): I + II; XRPD Results after slurry ([3]; Experiment 4, MeOH, 25° C., 1 hour 20 min): I + II; XRPD Results after slurry ([3]; Experiment 4, MeOH, 25° C., 1 hour 40 min): I + II (minor)
